# Experimental data from patent US7902373B2 (Pfizer Inc, priority 2006, dated 2011).
# Biological target: human recombinant H-PGDS (Homo sapiens, UniProt O60760)
# Experiment: Fluorescence intensity h-PGDS TBA enzyme assay
# Format: biochemical
# Settings: Examples up to 622 (and 3a, 3b)
# human recombinant H-PGDS, sequence (O60760 whole entry): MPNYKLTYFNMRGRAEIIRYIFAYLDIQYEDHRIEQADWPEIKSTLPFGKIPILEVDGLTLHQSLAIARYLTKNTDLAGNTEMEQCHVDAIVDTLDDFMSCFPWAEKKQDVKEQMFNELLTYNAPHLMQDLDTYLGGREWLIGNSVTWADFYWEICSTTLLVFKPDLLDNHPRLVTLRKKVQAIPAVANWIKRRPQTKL
row,Compound,IC50
1,"O=C(NC1CCN(Cc2cc(F)c(F)cc2F)CC1)c1ccc(-c2cccc(F)c2)nc1 [Example 218, 6-(3-Fluorophenyl)-N-[1-(245-trifluorobenzyl)piperidin-4-yl]nicotinamide]",0.448 nM
2,"COc1ccc(CN2CCC(NC(=O)c3ccc(-c4cccc(F)c4)nc3)CC2)c(OC)c1 [Example 220, N-[1-(2,4-Dimethoxybenzyl)piperidin-4-yl]-6-(3-fluorophenyl)nicotinamide]",2.42 nM
3,"O=C(NC1CCN(CC2CC=CCC2)CC1)c1ccc(-c2cccc(F)c2)nc1 (stereo not drawn) [Example 221, N-[1-(Cyclohex-3-en-1-ylmethyl)piperidin-4-yl]-6-(3-fluorophenyl)nicotinamide]",0.446 nM
4,"COc1ccc(CN2CCC(NC(=O)c3ccc(-c4cccc(F)c4)nc3)CC2)cc1 [Example 222, 6-(3-Fluorophenyl)-N-[1-(4-methoxybenzyl)piperidin-4-yl]nicotinamide]",6.64 nM
5,"O=C(NC1CCN(Cc2ccc(Cl)cc2)CC1)c1ccc(-c2cccc(F)c2)nc1 [Example 225, N-[1-(4-Chlorobenzyl)piperidin-4-yl]-6-(3-fluorophenyl)nicotinamide]",2.48 nM
6,"COc1ccc2[nH]cc(CN3CCC(NC(=O)c4ccc(-c5cccc(F)c5)nc4)CC3)c2c1 [Example 226, 6-(3-Fluorophenyl)-N-{1-[(5-methoxy-1H-indol-3-yl)methyl]piperidin-4-yl}nicotinamide]",1.42 nM
7,"Cc1c(CN2CCC(NC(=O)c3ccc(-c4cccc(F)c4)nc3)CC2)c(=O)n(-c2ccccc2)n1C [Example 232, N-{1-[(1,5-Dimethyl-3-oxo-2-phenyl-2,3-dihydro-1H-pyrazol-4-yl)methyl]piperidin-4-yl}-6-(3-fluorophenyl)nicotinamide]",2.71 nM
8,"O=C(NC1CCN(Cc2cccc(Cl)c2)CC1)c1ccc(-c2cccc(F)c2)nc1 [Example 233, N-[1-(3-Chlorobenzyl)piperidin-4-yl]-6-(3-fluorophenyl)nicotinamide]",0.352 nM
9,"COc1ccc(CN2CCC(NC(=O)c3ccc(-c4cccc(F)c4)nc3)CC2)cc1C [Example 235, 6-(3-Fluorophenyl)-N-[1-(4-methoxy-3-methylbenzyl)piperidin-4-yl]nicotinamide]",1.98 nM
10,"O=C(NC1CCN(Cc2ccc(F)c(F)c2F)CC1)c1ccc(-c2cccc(F)c2)nc1 [Example 236, 6-(3-Fluorophenyl)-N-[1-(2,3,4-trifluorobenzyl)piperidin-4-yl]nicotinamide]",0.577 nM
11,"O=C(NC1CCN(Cc2ccc(F)cc2F)CC1)c1ccc(-c2cccc(F)c2)nc1 [Example 237, N-[1-(2,4-Difluorobenzyl)piperidin-4-yl]-6-(3-fluorophenyl)nicotinamide]",0.698 nM
12,"N#Cc1cccc(CN2CCC(NC(=O)c3ccc(-c4cccc(F)c4)nc3)CC2)c1 [Example 238, N-[1-(3-Cyanobenzyl)piperidin-4-yl]-6-(3-fluorophenyl)nicotinamide]",0.135 nM
13,"O=C(NC1CCN(Cc2cc(F)ccc2F)CC1)c1ccc(-c2cccc(F)c2)nc1 [Example 239, N-[1-(2,5-Difluorobenzyl)piperidin-4-yl]-6-(3-fluorophenyl)nicotinamide]",0.245 nM
14,"Cn1cc(CN2CCC(NC(=O)c3ccc(-c4cccc(F)c4)nc3)CC2)c2ccccc21 [Example 242, 6-(3-Fluorophenyl)-N-{1-[(1-methyl-1H-indol-3-yl)methyl]piperidin-4-yl}nicotinamide]",0.781 nM
15,"CC(=O)n1cc(CN2CCC(NC(=O)c3ccc(-c4cccc(F)c4)nc3)CC2)c2ccccc21 [Example 243, N-{1-[(1-Acetyl-1H-indol-3-yl)methyl]piperidin-4-yl}-6-(3-fluorophenyl)nicotinamide]",1.03 nM
16,"O=C(NC1CCN(Cc2c(F)cccc2F)CC1)c1ccc(-c2cccc(F)c2)nc1 [Example 244, N-[1-(2,6-Difluorobenzyl)piperidin-4-yl]-6-(3-fluorophenyl)nicotinamide]",0.288 nM
17,"COc1ccc(CN2CCC(NC(=O)c3ccc(-c4cccc(F)c4)nc3)CC2)cc1Br [Example 245, N-[1-(3-Bromo-4-methoxybenzyl)piperidin-4-yl]-6-(3-fluorophenyl)nicotinamide]",1.2 nM
18,"COc1ccc(CN2CCC(NC(=O)c3ccc(-c4cccc(F)c4)nc3)CC2)cc1F [Example 247, N-[1-(3-Fluoro-4-methoxybenzyl)piperidin-4-yl]-6-(3-fluorophenyl)nicotinamide]",0.653 nM
19,"O=C(NC1CCN(Cc2cc(F)cc(F)c2)CC1)c1ccc(-c2cccc(F)c2)nc1 [Example 248, N-[1-(3,5-Difluorobenzyl)piperidin-4-yl]-6-(3-fluorophenyl)nicotinamide]",1.05 nM
20,"CCOc1cc(CN2CCC(NC(=O)c3ccc(-c4cccc(F)c4)nc3)CC2)ccc1OC [Example 249, N-[1-(3-Ethoxy-4-methoxybenzyl)piperidin-4-yl]-6-(3-fluorophenyl)nicotinamide]",1.17 nM
21,"O=C(NC1CCN(Cc2c[nH]c3ccc(F)cc23)CC1)c1ccc(-c2cccc(F)c2)nc1 [Example 252, N-{1-[(5-Fluoro-1H-indol-3-yl)methyl]piperidin-4-yl}-6-(3-fluorophenyl)nicotinamide]",0.865 nM
22,"O=C(NC1CCN(Cc2ccccc2OCCO)CC1)c1ccc(-c2cccc(F)c2)nc1 [Example 255, 6-(3-Fluorophenyl)-N-{1-[2-(2-hydroxyethoxy)benzyl]piperidin-4-yl}nicotinamide]",0.738 nM
23,"O=C(NC1CCN(Cc2cccc(OCCO)c2)CC1)c1ccc(-c2cccc(F)c2)nc1 [Example 256, 6-(3-Fluorophenyl)-N-{1-[3-(2-hydroxyethoxy)benzyl]piperidin-4-yl}nicotinamide]",0.397 nM
24,"COc1cc(CN2CCC(NC(=O)c3ccc(-c4cccc(F)c4)nc3)CC2)cc(Cl)c1O [Example 257, N-[1-(3-Chloro-4-hydroxy-5-methoxybenzyl)piperidin-4-yl]-6-(3-fluorophenyl)nicotinamide]",0.58 nM

# Further compounds by falling IC50, results first:
row,IC50,Compound
1,2.5 nM,"CCOc1ccc(CN2CCC(NC(=O)c3ccc(-c4cccc(F)c4)nc3)CC2)cc1OCC [Example 228, N-[1-(3,4-Diethoxybenzyl)piperidin-4-yl]-6-(3-fluorophenyl)nicotinamide]"
2,2.19 nM,"O=C(NC1CCN(Cc2ccc3c(c2)OCCO3)CC1)c1ccc(-c2cccc(F)c2)nc1 [Example 241, N-[1-(2,3-Dihydro-14-benzodioxin-6-ylmethyl)piperidin-4-yl]-6-(3-fluorophenyl)nicotinamide]"
3,1.97 nM,"O=C(NC1CCN(Cc2cnc3ccccc3c2)CC1)c1ccc(-c2cccc(F)c2)nc1 [Example 246, 6-(3-Fluorophenyl)-N-[1-(quinolin-3-ylmethyl)piperidin-4-yl]nicotinamide]"
4,1.68 nM,"O=C(NC1CCN(Cc2c[nH]c(=O)[nH]c2=O)CC1)c1ccc(-c2cccc(F)c2)nc1 [Example 254, N-{1-[(2,4-Dioxo-1234-tetrahydropyrimidin-5-yl)methyl]piperidin-4-yl}-6-(3-fluorophenyl)nicotinamide]"
5,1.65 nM,"CCOc1ccc(CN2CCC(NC(=O)c3ccc(-c4cccc(F)c4)nc3)CC2)cc1 [Example 234, N-[1-(4-Ethoxybenzyl)piperidin-4-yl]-6-(3-fluorophenyl)nicotinamide]"
6,1.51 nM,"CC(C)Oc1ccc(CN2CCC(NC(=O)c3ccc(-c4cccc(F)c4)nc3)CC2)cc1 [Example 217, 6-(3-Fluorophenyl)-N-[1-(4-isopropoxybenzyl)piperidin-4-yl]nicotinamide]"
7,1.45 nM,"CCOc1ccc(CN2CCC(NC(=O)c3ccc(-c4cccc(F)c4)nc3)CC2)cc1OC [Example 253, N-[1-(4-Ethoxy-3-methoxybenzyl)piperidin-4-yl]-6-(3-fluorophenyl)nicotinamide]"
8,0.928 nM,"O=C(NC1CCN(Cc2cc(Br)ccc2O)CC1)c1ccc(-c2cccc(F)c2)nc1 [Example 223, N-[1-(5-Bromo-2-hydroxybenzyl)piperidin-4-yl]-6-(3-fluorophenyl)nicotinamide]"
9,0.815 nM,"N#Cc1ccc(CN2CCC(NC(=O)c3ccc(-c4cccc(F)c4)nc3)CC2)cc1 [Example 227, N-[1-(4-Cyanobenzyl)piperidin-4-yl]-6-(3-fluorophenyl)nicotinamide]"
10,0.749 nM,"Cn1c(CN2CCC(NC(=O)c3ccc(-c4cccc(F)c4)nc3)CC2)nc2ccccc21 [Example 219, 6-(3-Fluorophenyl)-N-{1-[(1-methyl-1H-benzimidazol-2-yl)methyl]piperidin-4-yl}nicotinamide]"
11,0.623 nM,"CC(C)(C)CN1CCC(NC(=O)c2ccc(-c3cccc(F)c3)nc2)CC1 [Example 251, N-[1-(2,2-Dimethylpropyl)piperidin-4-yl]-6-(3-fluorophenyl)nicotinamide]"
12,0.552 nM,"COc1ccccc1CN1CCC(NC(=O)c2ccc(-c3cccc(F)c3)nc2)CC1 [Example 231, 6-(3-Fluorophenyl)-N-[1-(2-methoxybenzyl)piperidin-4-yl]nicotinamide]"
13,0.53 nM,"COc1cccc(CN2CCC(NC(=O)c3ccc(-c4cccc(F)c4)nc3)CC2)c1OC [Example 230, N-[1-(2,3-Dimethoxybenzyl)piperidin-4-yl]-6-(3-fluorophenyl)nicotinamide]"
14,0.509 nM,"CCOc1ccccc1CN1CCC(NC(=O)c2ccc(-c3cccc(F)c3)nc2)CC1 [Example 229, N-[1-(2-Ethoxybenzyl)piperidin-4-yl]-6-(3-fluorophenyl)nicotinamide]"
15,0.409 nM,"Cc1nn(C)c(C)c1CN1CCC(NC(=O)c2ccc(-c3cccc(F)c3)nc2)CC1 [Example 250, 6-(3-Fluorophenyl)-N-{1-[(1,3-trimethyl-1H-pyrazol-4-yl)methyl]piperidin-4-yl}nicotinamide]"
16,0.36 nM,"O=C(NC1CCN(Cc2nccs2)CC1)c1ccc(-c2cccc(F)c2)nc1 [Example 216, 6-(3-Fluorophenyl)-N-[1-(1,3-thiazol-2-ylmethyl)piperidin-4-yl]nicotinamide]"
17,0.342 nM,"COc1cccc(CN2CCC(NC(=O)c3ccc(-c4cccc(F)c4)nc3)CC2)c1 [Example 224, 6-(3-Fluorophenyl)-N-[1-(3-methoxybenzyl)piperidin-4-yl]nicotinamide]"
18,0.181 nM,"O=C(NC1CCN(Cc2cccc(F)c2F)CC1)c1ccc(-c2cccc(F)c2)nc1 [Example 240, N-[1-(2,3-Difluorobenzyl)piperidin-4-yl]-6-(3-fluorophenyl)nicotinamide]"
